Measurements reported in patent publication US8354570B2, “Disease resistant plants” (Enza Zaden Beheer B.V., priority 2005, dated 2013).
Entries after “also recorded” stand apart in the source; their conditions may differ.

Experiments:
[1] = test system: H. parasitica isolate Cala2; test: Microscopy of trypan blue stained seedlings: growth and development of H. parasitica in planta; type: in vivo, Hyaloperonospora parasitica; settings: for haustorial development: 5 mM infiltration, microscopy, 40x magnification, FIG. 7b
Procedure: (§1) To test if the effect is specific for homoserine the stereo-isomer D-homoserine was tested. Whole seedlings were infiltrated with water, 5 mM D-homoserine and 5 mM L-homoserine. […] The infiltration was applied to two Arabidopsis accessions, Ler eds1-2 and Ws eds1-1, susceptible to Cala2 and Waco9, respectively. Conidiophore formation was determined as an indicator for H. parsitica susceptibility. Conidiophores were counted 5 days post inoculation with H. parasitica and 2 days post infiltration with water, D-homoserine or L-homoserine. (FIG. 6). […] This was further confirmed by studying pathogen growth in planta by trypan blue staining of Arabidopsis seedlings. Plants were inoculated with isolate Cala2. Two days later the plants were treated by infiltration with water, 5 mM D-homoserine, and 5 mM L-homoserine.
Again it is shown that increased levels of homoserine in planta lead to pathogen resistance.

[2] = test system: H. parasitica isolates Cala2 and Waco9; test: Conidiophore counting on H. parasitica-inoculated Arabidopsis seedlings infiltrated with homoserine; type: in vivo, Hyaloperonospora parasitica
Procedure: The inoculated seedlings were infiltrated with dH2O, D-homoserine (5 mM) or L-homoserine (5 mM) at 3 days post inoculation with the pathogen.
as §1

[3] = 5 mM infiltration of whole Arabidopsis seedlings

SMILES	pathogen growth in planta (trypan blue staining) ([1]; 5 mM infiltration two days after inoculation with Cala2, scored 5 days post inoculation, FIG. 7)	conidiophore formation (microscopy) ([1]; 5 mM infiltration two days after inoculation with Cala2, scored 5 days post inoculation, Ler eds1-2 seedlings, trypan blue, FIG. 7)	haustorial development [1]	resistance / susceptibility to H. parasitica [2, 3]	conidiophore formation (number of conidiophores per seedling) ([2]; 5 mM infiltration of whole seedlings, counted 5 days post inoculation, 2 days post infiltration, Ler eds1-2 (Cala2) and Ws eds1-1 (Waco9), FIG. 6)	pathogen growth [2, 3]
N[C@@H](CCO)C(=O)O [L-homoserine]	strongly reduced pathogen growth	No conidiophore formation was detected	affected; also recorded: disturbed	resistant; also recorded: resulted in resistance to H. parasitica	complete absence of conidiophore formation; also recorded: reduction of conidiophore formation	
N[C@H](CCO)C(=O)O [D-homoserine, reference compound]			not	susceptible to H. parasitica		did not show a large reduction in pathogen growth
